# According to patent US10765114B2, “4-amino-6-(pyridyl and 2-substitutedphenyl)-picolinates and 6-amino-2-(pyridyl and 2-substitutedphenyl)-pyrimidine-4-carboxylates and their use as herbicides” (Dow AgroSciences LLC, priority 2013, dated 2020):
# System: Key Grass and Sedge Weeds as well as Grass Crops
# Assay: Post-Emergent Test II (Table 6)
# Format: in vivo
# Conditions: ZEAMX: maize, corn (Zea mays), crop, 140 g ai/ha
# Procedure: (§1) Seeds or nutlets of the desired test plant species were planted in Sun Gro Metro-Mix® 360 planting mixture, which typically has a pH of 6.0 to 6.8 and an organic matter content of about 30 percent, in plastic pots with a surface area of 64 square centimeters. When required to ensure good germination and healthy plants, a fungicide treatment and/or other chemical or physical treatment was applied. The plants were grown for 7-21 days in a greenhouse with an approximate 15 h photoperiod which was maintained at about 23-29° C. during the day and 22-28° C. during the night. Nutrients and water were added on a regular basis and supplemental lighting was provided with overhead metal halide 1000-Watt lamps as necessary. The plants were employed for testing when they reached the first or second true leaf stage.
# (§2) A weighed amount, determined by the highest rate to be tested, of each test compound was placed in a 25 mL glass vial and was dissolved in 4 mL of a 97:3 v/v mixture of acetone and DMSO to obtain concentrated stock solutions. […] The concentrated stock solutions obtained were diluted with 20 mL of an aqueous mixture containing acetone, water, isopropyl alcohol, DMSO, Atplus 411F crop oil concentrate, and Triton® X-155 surfactant in a 48.5:39:10:1.5:1.0:0.02 v/v ratio to obtain spray solutions containing the highest application rates. Additional application rates were obtained by serial dilution of 12 mL of the high rate solution into a solution containing 2 mL of 97:3 v/v mixture of acetone and DMSO and 10 mL of an aqueous mixture containing acetone, water, isopropyl alcohol, DMSO, Atplus 411F crop oil concentrate, and Triton X-155 surfactant in a 48.5:39:10:1.5:1.0:0.02 v/v ratio to obtain ½×, ¼×, ⅛× and 1/16× rates of the high rate. Compound requirements are based upon a 12 mL application volume at a rate of 187 liters per hectare (L/ha). Formulated compounds were applied to the plant material with an overhead Mandel track sprayer equipped with 8002E nozzles calibrated to deliver 187 L/ha over an application area of 0.503 square meters at a spray height of 18 inches (43 cm) above the average plant canopy height. Control plants were sprayed in the same manner with the solvent blank.
# (§3) The treated plants and control plants were placed in a greenhouse as described above and watered by subirrigation to prevent wash-off of the test compounds. After 14 days, the condition of the test plants as compared with that of the untreated plants was determined visually and scored on a scale of 0 to 100 percent where 0 corresponds to no injury and 100 corresponds to complete kill and presented as indicated in Table A. Some of the compounds tested, application rates employed, plant species tested, and results are given in Table 5.
row,SMILES,"Visual Growth Reduction (%) 14 Days After Application, ZEAMX"
1,"Nc1cc(-c2ccc(Cl)c(F)c2C(F)F)nc(C(=O)O)c1Cl [Compound 13, 4-Amino-3-chloro-6-(4-chloro-2-(difluoromethyl)-3-fluorophenyl)picolinic acid]",G (0-29)

# System: Key Broadleaf Weed and Crop Species
# Assay: Post-Emergent Test II (Table 5)
# Format: in vivo
# Conditions: Abutilon theophrasti, post-emergence, 336 h, ABUTH: velvetleaf (Abutilon theophrasti), application rate 70 (kg ai/ha; footnote: g ai/ha), read-out: Visual Growth Reduction (%) 14 Days After Application ABUTH
# Procedure: as §1, §2, §3
row,SMILES,pest or weed control at 70 g/ha
1,"Nc1cc(-c2ccc(Cl)c(F)c2C(F)F)nc(C(=O)O)c1Cl [Compound 13, 4-Amino-3-chloro-6-(4-chloro-2-(difluoromethyl)-3-fluorophenyl)picolinic acid]",75 to 84%

# Same assay, conditions: Abutilon theophrasti, post-emergence, 336 h, ABUTH: velvetleaf (Abutilon theophrasti), application rate 140 (kg ai/ha; footnote: g ai/ha), read-out: Visual Growth Reduction (%) 14 Days After Application ABUTH
row,SMILES,pest or weed control at 140 g/ha
1,"Nc1cc(-c2ccc(Cl)c(F)c2C(F)F)nc(C(=O)O)c1Cl [Compound 13, 4-Amino-3-chloro-6-(4-chloro-2-(difluoromethyl)-3-fluorophenyl)picolinic acid]",0 to 29%

# Same assay, conditions: Amaranthus retroflexus, post-emergence, 336 h, AMARE: redroot pigweed (Amaranthus retroflexus), application rate 70 (kg ai/ha; footnote: g ai/ha), read-out: Visual Growth Reduction (%) 14 Days After Application AMARE
row,SMILES,pest or weed control at 70 g/ha
1,"Nc1cc(-c2ccc(Cl)c(F)c2C(F)F)nc(C(=O)O)c1Cl [Compound 13, 4-Amino-3-chloro-6-(4-chloro-2-(difluoromethyl)-3-fluorophenyl)picolinic acid]",95 to 100%

# Same assay, conditions: Amaranthus retroflexus, post-emergence, 336 h, AMARE: redroot pigweed (Amaranthus retroflexus), application rate 140 (kg ai/ha; footnote: g ai/ha), read-out: Visual Growth Reduction (%) 14 Days After Application AMARE
row,SMILES,pest or weed control at 140 g/ha
1,"Nc1cc(-c2ccc(Cl)c(F)c2C(F)F)nc(C(=O)O)c1Cl [Compound 13, 4-Amino-3-chloro-6-(4-chloro-2-(difluoromethyl)-3-fluorophenyl)picolinic acid]",95 to 100%

# Same assay, conditions: Brassica napus, post-emergence, 336 h, BRSSS: oilseed rape, canola (Brassica napus), application rate 70 (kg ai/ha; footnote: g ai/ha), read-out: Visual Growth Reduction (%) 14 Days After Application BRSSS
row,SMILES,pest or weed control at 70 g/ha
1,"Nc1cc(-c2ccc(Cl)c(F)c2C(F)F)nc(C(=O)O)c1Cl [Compound 13, 4-Amino-3-chloro-6-(4-chloro-2-(difluoromethyl)-3-fluorophenyl)picolinic acid]",85 to 94%

# Same assay, conditions: Brassica napus, post-emergence, 336 h, BRSSS: oilseed rape, canola (Brassica napus), application rate 140 (kg ai/ha; footnote: g ai/ha), read-out: Visual Growth Reduction (%) 14 Days After Application BRSSS
row,SMILES,pest or weed control at 140 g/ha
1,"Nc1cc(-c2ccc(Cl)c(F)c2C(F)F)nc(C(=O)O)c1Cl [Compound 13, 4-Amino-3-chloro-6-(4-chloro-2-(difluoromethyl)-3-fluorophenyl)picolinic acid]",85 to 94%

# Same assay, conditions: Chenopodium album, post-emergence, 336 h, CHEAL: lambsquarters (Chenopodium album), application rate 70 (kg ai/ha; footnote: g ai/ha), read-out: Visual Growth Reduction (%) 14 Days After Application CHEAL
row,SMILES,pest or weed control at 70 g/ha
1,"Nc1cc(-c2ccc(Cl)c(F)c2C(F)F)nc(C(=O)O)c1Cl [Compound 13, 4-Amino-3-chloro-6-(4-chloro-2-(difluoromethyl)-3-fluorophenyl)picolinic acid]",95 to 100%

# Same assay, conditions: Chenopodium album, post-emergence, 336 h, CHEAL: lambsquarters (Chenopodium album), application rate 140 (kg ai/ha; footnote: g ai/ha), read-out: Visual Growth Reduction (%) 14 Days After Application CHEAL
row,SMILES,pest or weed control at 140 g/ha
1,"Nc1cc(-c2ccc(Cl)c(F)c2C(F)F)nc(C(=O)O)c1Cl [Compound 13, 4-Amino-3-chloro-6-(4-chloro-2-(difluoromethyl)-3-fluorophenyl)picolinic acid]",95 to 100%

# Same assay, conditions: Euphorbia heterophylla, post-emergence, 336 h, EPHHL: wild poinsettia (Euphorbia heterophylla), application rate 70 (kg ai/ha; footnote: g ai/ha), read-out: Visual Growth Reduction (%) 14 Days After Application EPHHL
row,SMILES,pest or weed control at 70 g/ha
1,"Nc1cc(-c2ccc(Cl)c(F)c2C(F)F)nc(C(=O)O)c1Cl [Compound 13, 4-Amino-3-chloro-6-(4-chloro-2-(difluoromethyl)-3-fluorophenyl)picolinic acid]",0 to 29%

# Same assay, conditions: Euphorbia heterophylla, post-emergence, 336 h, EPHHL: wild poinsettia (Euphorbia heterophylla), application rate 140 (kg ai/ha; footnote: g ai/ha), read-out: Visual Growth Reduction (%) 14 Days After Application EPHHL
row,SMILES,pest or weed control at 140 g/ha
1,"Nc1cc(-c2ccc(Cl)c(F)c2C(F)F)nc(C(=O)O)c1Cl [Compound 13, 4-Amino-3-chloro-6-(4-chloro-2-(difluoromethyl)-3-fluorophenyl)picolinic acid]",0 to 29%

# Same assay, conditions: Helianthus annuus, post-emergence, 336 h, HELAN: sunflower (Helianthus annuus), application rate 70 (kg ai/ha; footnote: g ai/ha), read-out: Visual Growth Reduction (%) 14 Days After Application HELAN
row,SMILES,pest or weed control at 70 g/ha
1,"Nc1cc(-c2ccc(Cl)c(F)c2C(F)F)nc(C(=O)O)c1Cl [Compound 13, 4-Amino-3-chloro-6-(4-chloro-2-(difluoromethyl)-3-fluorophenyl)picolinic acid]",85 to 94%

# Same assay, conditions: Helianthus annuus, post-emergence, 336 h, HELAN: sunflower (Helianthus annuus), application rate 140 (kg ai/ha; footnote: g ai/ha), read-out: Visual Growth Reduction (%) 14 Days After Application HELAN
row,SMILES,pest or weed control at 140 g/ha
1,"Nc1cc(-c2ccc(Cl)c(F)c2C(F)F)nc(C(=O)O)c1Cl [Compound 13, 4-Amino-3-chloro-6-(4-chloro-2-(difluoromethyl)-3-fluorophenyl)picolinic acid]",85 to 94%

# Same assay, conditions: Viola tricolor, post-emergence, 336 h, VIOTR: wild pansy (Viola tricolor), application rate 70 (kg ai/ha; footnote: g ai/ha), read-out: Visual Growth Reduction (%) 14 Days After Application VIOTR
row,SMILES,pest or weed control at 70 g/ha
1,"Nc1cc(-c2ccc(Cl)c(F)c2C(F)F)nc(C(=O)O)c1Cl [Compound 13, 4-Amino-3-chloro-6-(4-chloro-2-(difluoromethyl)-3-fluorophenyl)picolinic acid]",0 to 29%

# Same assay, conditions: Viola tricolor, post-emergence, 336 h, VIOTR: wild pansy (Viola tricolor), application rate 140 (kg ai/ha; footnote: g ai/ha), read-out: Visual Growth Reduction (%) 14 Days After Application VIOTR
row,SMILES,pest or weed control at 140 g/ha
1,"Nc1cc(-c2ccc(Cl)c(F)c2C(F)F)nc(C(=O)O)c1Cl [Compound 13, 4-Amino-3-chloro-6-(4-chloro-2-(difluoromethyl)-3-fluorophenyl)picolinic acid]",0 to 29%
